Source: publication PMC7549214 (Malaria Journal, 2020)
Read-outs that look alike come from different tables or passages of the source.

Columns and labels:
[1] = target: human HDAC2 (Homo sapiens, UniProt Q92769); assay: Isoform selectivity, recombinant HDAC isoforms; assay type: biochemical; conditions: single experiment assays
Experimental: Isoform selectivity was tested using recombinant HDAC isoforms (Biomol, USA).

[2] = target: T1, PfHDAC1 (Plasmodium falciparum, UniProt Q7K6A1); assay: PfHDAC1 fluorescent activity assay; assay type: biochemical
T1 construct: His-tag; FLAG-tag; purchased BPS Bioscience

[3] = tested on: Plasmodium falciparum strain 3D7; assay: In vitro killing profile; assay type: cell-based; conditions: 10 × IC50
Experimental: Briefly, the assay used limiting dilution technique to quantify the number of parasites viable after drug treatment. […] Parasites were treated for […]. The drugs used were renewed daily over the entire treatment period. Samples of parasites were taken from the treated culture every 24 h (0, for control of the initial number of parasites, 24, 48, 72, 96, 120 h’ time points). Following this, the procedure was carried out to wash out the drugs, and drug-free parasites were cultured in 96-well plates by adding fresh erythrocytes and new media (RPMI 1640 medium). Three-fold serial dilution was used with the abovementioned samples after removing the drug to quantify the number of viable parasites after treatment. Parasites were cultured in microtitre plates to allow all wells with viable parasites to render detectable parasitaemia. Four independent serial dilutions were carried out with each sample to correct experimental variations. Samples were examined after 21 days of culturing. Additional sampling was done after 28 days to confirm the growth/no growth.

[4] = tested on: Dd2 DDD107498 (PfeEF2 Y186N); assay: microbe, parasite or virus in culture; assay type: cell-based; conditions: Plasmodium falciparum
[5] = tested on: Cam3.I (MRA1240); assay: microbe, parasite or virus in culture; assay type: cell-based; conditions: Plasmodium falciparum
[6] = Plasma protein binding; assay type: in vitro ADME; conditions: mouse, read-out: Plasma protein binding (% bound)
[7] = Plasma protein binding; assay type: in vitro ADME; conditions: dog, read-out: Plasma protein binding (% bound)
[8] = Plasma protein binding; assay type: in vitro ADME; conditions: human
[9] = Microsomal stability; assay type: in vitro ADME, mouse; conditions: MLM, Test Conc. 10 µM
[10] = Microsomal stability; assay type: in vitro ADME, rat; conditions: RLM, Test Conc. 10 µM
[11] = Microsomal stability; assay type: in vitro ADME, human; conditions: HLM, Test Conc. 10 µM
[12] = in vitro; assay type: in vitro ADME; conditions: rat, plasma
[13] = target: CYP1A2 (Homo sapiens, UniProt P05177); assay: CYP inhibition; assay type: in vitro ADME
[14] = target: CYP 2D6 (Homo sapiens, UniProt P10635); assay: CYP inhibition; assay type: in vitro ADME
[15] = tested on: HepG2; assay: Cytotoxicity; assay type: cell-based
[16] = target: hERG (Homo sapiens, UniProt Q12809); assay: hERG binding
[17] = Single dose pharmacokinetics in SCID mice; assay type: in vivo; conditions: female, C.B-17/IcrHsd-Prkdc^scidLyst^bg (SCID), mouse, plasma; infected SCID mice, oral, 50 mg/Kg
Experimental: (§1) Female […] mice (n = 3) aged 7-8 weeks and weighing around 20 to 22 g were used for experimentation after a minimum 7 days of acclimation. Male BALB/c mice (n = 3) aged 8-10 weeks and weighing around 20 to 22 g were also used for experimentation after a minimum 7 days of acclimation. […] Feed was offered 2 h post-dose. Under mild isofluorane […], blood samples were collected by retro-orbital route into labelled centrifuge tubes containing K2EDTA anticoagulant at a concentration of 2 mg/mL of blood during the next 24 h post-dose. Collected blood samples were centrifuged at 4000 rpm for 10 min, and harvested plasma samples were stored at - 80 °C until analysis.

[18] = Single dose pharmacokinetics in Balb/C mice; assay type: in vivo; conditions: normal Balb/C mice; for half-life / AUC(0-t) / Cmax / Tmax: male, mouse, plasma; for half-life: BALB/c, 50 mg/kg
Experimental: as §1

[19] = Repeated dose 14-day toxicokinetics (TK) study; assay type: in vivo, Sprague–Dawley rats; conditions: for Cmax / half-life / AUC(0-inf) / AUC(0-t) / Tmax: Sprague-Dawley, rat, po, 100 mg/kg
[20] = Repeated dose 14-day toxicity study;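 also: rats dosed once daily for 14 days, test item in Tween 80 plus methylcellulose vehicle at 10 mL/kg bw, compared against vehicle-treated G1 controls by one-way ANOVA with Dunnett test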
[21] = both sexes, in vivo, rats, 100 mg/kg body weight
[22] = female, in vivo, female, day 1, 100 mg/kg bw
[23] = female, in vivo, female, day 14, 100 mg/kg bw
[24] = male, in vivo, male, day 1, 100 mg/kg bw
[25] = male, in vivo, male, day 14, 100 mg/kg bw

CYP 2D6, sequence (P10635 whole entry, species assumed): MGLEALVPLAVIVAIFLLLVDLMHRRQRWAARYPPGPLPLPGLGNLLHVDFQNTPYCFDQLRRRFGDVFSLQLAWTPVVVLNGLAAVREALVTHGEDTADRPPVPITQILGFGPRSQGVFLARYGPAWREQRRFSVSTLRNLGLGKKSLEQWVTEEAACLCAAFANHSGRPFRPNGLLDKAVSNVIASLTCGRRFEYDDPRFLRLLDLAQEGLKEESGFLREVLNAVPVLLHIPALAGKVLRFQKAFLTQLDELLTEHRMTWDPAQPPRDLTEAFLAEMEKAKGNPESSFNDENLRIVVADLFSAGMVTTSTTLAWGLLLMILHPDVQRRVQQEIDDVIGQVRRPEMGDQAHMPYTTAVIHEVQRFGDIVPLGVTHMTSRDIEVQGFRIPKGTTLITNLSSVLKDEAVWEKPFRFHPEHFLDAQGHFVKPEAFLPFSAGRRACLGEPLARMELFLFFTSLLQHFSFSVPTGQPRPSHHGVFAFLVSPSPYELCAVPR
CYP1A2, sequence (P05177 whole entry, species assumed): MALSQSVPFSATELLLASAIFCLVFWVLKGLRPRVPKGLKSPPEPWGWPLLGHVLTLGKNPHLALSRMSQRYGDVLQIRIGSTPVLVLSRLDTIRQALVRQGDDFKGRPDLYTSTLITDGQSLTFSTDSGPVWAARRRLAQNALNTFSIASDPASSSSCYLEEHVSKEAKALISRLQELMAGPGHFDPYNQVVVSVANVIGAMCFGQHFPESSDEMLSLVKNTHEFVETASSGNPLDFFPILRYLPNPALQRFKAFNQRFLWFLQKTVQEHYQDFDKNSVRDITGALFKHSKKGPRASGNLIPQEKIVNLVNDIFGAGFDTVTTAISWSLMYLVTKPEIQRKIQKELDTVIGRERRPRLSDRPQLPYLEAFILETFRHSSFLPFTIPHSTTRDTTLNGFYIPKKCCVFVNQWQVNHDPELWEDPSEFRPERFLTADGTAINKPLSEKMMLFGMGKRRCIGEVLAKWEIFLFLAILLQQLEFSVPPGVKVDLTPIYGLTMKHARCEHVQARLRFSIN
hERG, sequence (Q12809 whole entry): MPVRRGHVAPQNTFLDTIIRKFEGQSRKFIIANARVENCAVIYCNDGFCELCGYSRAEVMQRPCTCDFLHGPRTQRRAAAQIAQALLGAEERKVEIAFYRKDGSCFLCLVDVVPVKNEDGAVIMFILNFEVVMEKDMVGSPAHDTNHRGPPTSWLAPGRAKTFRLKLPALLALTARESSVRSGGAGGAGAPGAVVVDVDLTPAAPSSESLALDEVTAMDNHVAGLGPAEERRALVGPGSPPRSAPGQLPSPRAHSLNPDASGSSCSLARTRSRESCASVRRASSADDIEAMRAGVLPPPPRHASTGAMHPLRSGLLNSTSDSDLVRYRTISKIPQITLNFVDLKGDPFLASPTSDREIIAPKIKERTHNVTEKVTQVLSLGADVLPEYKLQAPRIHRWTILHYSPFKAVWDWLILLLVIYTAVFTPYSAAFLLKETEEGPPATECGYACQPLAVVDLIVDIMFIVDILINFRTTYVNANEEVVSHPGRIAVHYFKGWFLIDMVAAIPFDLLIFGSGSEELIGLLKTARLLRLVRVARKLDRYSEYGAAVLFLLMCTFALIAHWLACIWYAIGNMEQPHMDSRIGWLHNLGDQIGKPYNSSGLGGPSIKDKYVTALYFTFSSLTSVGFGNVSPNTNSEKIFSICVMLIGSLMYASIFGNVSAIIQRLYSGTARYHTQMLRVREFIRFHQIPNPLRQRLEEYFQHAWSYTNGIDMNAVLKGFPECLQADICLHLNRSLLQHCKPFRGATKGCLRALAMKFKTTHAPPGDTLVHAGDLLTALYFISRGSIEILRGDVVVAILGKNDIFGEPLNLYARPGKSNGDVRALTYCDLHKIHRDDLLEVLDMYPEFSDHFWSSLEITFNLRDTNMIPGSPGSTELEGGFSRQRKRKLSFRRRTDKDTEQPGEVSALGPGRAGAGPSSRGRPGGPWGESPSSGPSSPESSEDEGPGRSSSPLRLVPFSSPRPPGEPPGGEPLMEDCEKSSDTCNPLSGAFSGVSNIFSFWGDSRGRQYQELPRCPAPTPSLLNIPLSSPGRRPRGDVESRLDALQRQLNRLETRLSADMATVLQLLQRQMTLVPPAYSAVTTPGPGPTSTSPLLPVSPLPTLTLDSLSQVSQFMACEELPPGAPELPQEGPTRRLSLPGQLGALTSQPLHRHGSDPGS
T1 sequence (Q7K6A1 1-449): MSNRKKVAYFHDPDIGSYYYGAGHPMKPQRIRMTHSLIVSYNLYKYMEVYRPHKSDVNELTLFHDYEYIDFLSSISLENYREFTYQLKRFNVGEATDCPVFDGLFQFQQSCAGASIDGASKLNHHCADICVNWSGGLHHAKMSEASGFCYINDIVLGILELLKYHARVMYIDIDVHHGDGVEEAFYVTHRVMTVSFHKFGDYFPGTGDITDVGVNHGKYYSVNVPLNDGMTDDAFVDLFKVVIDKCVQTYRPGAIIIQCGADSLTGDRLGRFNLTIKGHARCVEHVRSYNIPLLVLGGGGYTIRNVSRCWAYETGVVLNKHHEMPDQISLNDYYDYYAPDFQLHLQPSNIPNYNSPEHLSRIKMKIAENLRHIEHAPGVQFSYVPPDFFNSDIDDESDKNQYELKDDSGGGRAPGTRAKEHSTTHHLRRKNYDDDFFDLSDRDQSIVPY
human HDAC2, sequence (Q92769 whole entry, canonical isoform): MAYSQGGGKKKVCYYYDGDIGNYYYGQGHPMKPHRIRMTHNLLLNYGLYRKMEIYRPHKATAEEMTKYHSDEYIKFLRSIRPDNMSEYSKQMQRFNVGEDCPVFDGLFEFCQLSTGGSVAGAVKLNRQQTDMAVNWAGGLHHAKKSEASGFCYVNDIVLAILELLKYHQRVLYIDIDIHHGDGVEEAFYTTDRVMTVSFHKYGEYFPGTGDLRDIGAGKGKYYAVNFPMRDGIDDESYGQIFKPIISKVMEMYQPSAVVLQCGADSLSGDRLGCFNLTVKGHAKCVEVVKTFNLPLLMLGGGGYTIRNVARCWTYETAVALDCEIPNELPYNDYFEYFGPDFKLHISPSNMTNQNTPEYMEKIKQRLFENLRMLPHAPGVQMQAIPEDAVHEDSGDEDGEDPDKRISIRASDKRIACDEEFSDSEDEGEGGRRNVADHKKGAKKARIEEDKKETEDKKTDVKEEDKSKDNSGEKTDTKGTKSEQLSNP

O=C(NO)c1ccc(Cn2cc(-c3ccc(CN4CCCC4)cc3)nn2)cc1 [FNDR-20123]
IC50 [1]: 29 nM
IC50 [2]: 31 nM
In vitro killing profile compared with standard drugs [3]: better than atovaquone and comparable to pyrimethamine
IC50 [4]: 20.9 nM
IC50 [5]: 22.1 nM
fraction unbound [6]: > 0.7
fraction unbound [7]: > 0.8
Plasma protein binding (% bound) [8]: 57.30%
fraction unbound ([8]; plasma, Human, read-out: Plasma protein binding (% bound) (converted)): 0.43
Microsomal stability (% remaining at 120 min) [9]: 76.15%
remaining at 2 h, 10 µM ([9]; mouse, liver microsomes, read-out: Microsomal stability (% remaining at 120 min)): > 75%
Microsomal stability (% remaining at 120 min) [10]: 74.56%
remaining at 2 h, 10 µM ([10]; rat, liver microsomes, read-out: Microsomal stability (% remaining at 120 min)): > 75%
Microsomal stability (% remaining at 120 min) [11]: 85.31%
remaining at 2 h, 10 µM ([11]; human, liver microsomes, read-out: Microsomal stability (% remaining at 120 min)): > 75%
remaining at 4 h [12]: 88.9%
IC50 [13]: > 60 µM
IC50 [14]: 28 µM
Cytotoxicity to HepG-2 cell line [15]: negligible cytotoxicity
Cytotoxicity HepG2 (% @ 100 µM) ([15]; 100 µM): 12.6%
IC50 [16]: > 100 µM
AUC(0-t) [17]: 1340 ng·h/mL
Cmax [17]: 460 ng/mL
Tmax [17]: 1 h
half-life ([18]; im, intramuscular): 523 min
half-life ([18]; po): 120 min
half-life ([18]; sc, subcutaneous): 553 min
AUC(0-t) ([18]; im, intramuscular, 50 mg/Kg): 7220 ng·h/mL
Cmax ([18]; im, intramuscular, 50 mg/Kg): 15700 ng/mL
Tmax ([18]; im, intramuscular, 50 mg/Kg): 4.8 min
AUC(0-t) ([18]; sc, subcutaneous, 50 mg/Kg): 11000 ng·h/mL
Cmax ([18]; sc, subcutaneous, 50 mg/Kg): 14000 ng/mL
Tmax ([18]; sc, subcutaneous, 50 mg/Kg): 4.8 min
AUC(0-t) ([18]; oral, 50 mg/Kg): 327 ng·h/mL
Cmax ([18]; oral, 50 mg/Kg): 184 ng/mL
Tmax ([18]; oral, 50 mg/Kg): 60 min
t1/2 ([18]; oral, 50 mg/Kg): 2.02 h
Accumulation (toxicokinetic profile) ([19]; 100 mg/kg bw oral gavage, 14 days): no accumulation
Cmax [19, 21]: 1100 nM
half-life [19, 21]: 330 min
half-life ([19]; female, blood, female, day 1, 100 mg/kg bw): 193 ± 24.6 min
AUC(0-inf) [19, 22]: 448 ± 113 ng·h/mL
AUC(0-t) [19, 22]: 345 ± 71.6 ng·h/mL
Cmax [19, 22]: 229 ± 69.3 ng/mL
Tmax [19, 22]: 16.8 ± 12.6 min
AUC(0-inf) [19, 23]: 573 ± 23.1 ng·h/mL
AUC(0-t) [19, 23]: 480 ± 49.7 ng·h/mL
Cmax [19, 23]: 207 ± 36.1 ng/mL
Tmax [19, 23]: 8.4 ± 6 min
half-life ([19]; male, blood, male, day 1, 100 mg/kg bw): 343 ± 246 min
half-life ([19]; male, blood, male, day 14, 100 mg/kg bw): 138 ± 33 min
AUC(0-inf) [19, 24]: 1280 ± 282 ng·h/mL
AUC(0-t) [19, 24]: 712 ± 234 ng·h/mL
Cmax [19, 24]: 420 ± 174 ng/mL
Tmax [19, 24]: 19.8 ± 8.4 min
AUC(0-inf) [19, 25]: 1080 ± 216 ng·h/mL
AUC(0-t) [19, 25]: 957 ± 181 ng·h/mL
Cmax [19, 25]: 703 ± 362 ng/mL
Tmax [19, 25]: 11.4 ± 6 min
Toxic effects on body weights and organ weights ([20]; 14-day oral, 50, 100 and 150 mg/kg body weight, male and female rats): no adverse toxic effects on body weights and organ weights
Adverse clinical signs or mortality ([20]; 14-day repeat dose oral gavage, both sexes): did not reveal any adverse clinical signs or mortality
Abnormality in body weight or gross organ pathology ([20]; 14-day, 100 mg/kg daily dose): did not show any abnormality in body weight or gross organ pathology
Fasting body weight ([20]; female, G2 50 mg/kg): 149.51 g
Body weight ([20]; female, G2 50 mg/kg bw, day 1): 146.45 g
Body weight ([20]; female, G2 50 mg/kg bw, day 7): 150.70 g
Body weight ([20]; female, G2 50 mg/kg bw, day 14): 161.49 g
Body weight ([20]; female, G3 100 mg/kg bw, day 1): 146.70 g
Body weight ([20]; female, G3 100 mg/kg bw, day 7): 145.63 g
Body weight ([20]; female, G3 100 mg/kg bw, day 14): 158.43 g
Fasting body weight ([20]; female, G4 150 mg/kg): 134.25 g
Body weight ([20]; female, G4 150 mg/kg bw, day 7): 139.82 g
Body weight ([20]; female, G4 150 mg/kg bw, day 14): 142.91 g
Fasting body weight ([20]; male, G2 50 mg/kg): 189.75 g
Body weight ([20]; male, G2 50 mg/kg bw, day 1): 166.04 g
Body weight ([20]; male, G2 50 mg/kg bw, day 7): 190.40 g
Body weight ([20]; male, G2 50 mg/kg bw, day 14): 209.30 g
Fasting body weight ([20]; male, G3 100 mg/kg): 163.82 g
Body weight ([20]; male, G3 100 mg/kg bw, day 1): 166.39 g
Body weight ([20]; male, G3 100 mg/kg bw, day 7): 173.72 g
Body weight ([20]; male, G3 100 mg/kg bw, day 14): 177.16 g
Fasting body weight ([20]; male, G4 150 mg/kg): 174.95 g
Body weight ([20]; male, G4 150 mg/kg bw, day 1): 170.86 g
Body weight ([20]; male, G4 150 mg/kg bw, day 7): 180.10 g
Body weight ([20]; male, G4 150 mg/kg bw, day 14): 188.27 g
